Laboratory results from ChEMBL document CHEMBL4813971, “Development of novel benzofuran-based SLC-0111 analogs as selective cancer-associated carbonic anhydrase isoform IX inhibitors” (Eur J Med Chem, 2021).

Tests used:
Carbonic anhydrase 9 [1] = molecular target: T1, Carbonic anhydrase 9 (Homo sapiens, UniProt Q16790); test: Inhibition of human CA9 by stopped- flow CO2 hydration assay
Carbonic anhydrase 9 [2] = molecular target: T1, Carbonic anhydrase 9; test: Inhibition of human CA9 preincubated for 15 mins by phenol red dye based stopped flow CO2 hydration assay
Carbonic anhydrase 1 = Carbonic anhydrase 1 (Homo sapiens, UniProt P00915); test: Inhibition of human CA1 by stopped- flow CO2 hydration assay
MDA-MB-231 = test: Antiproliferative activity against human MDA-MB-231 cells incubated for 2 days by MTT assay; details: MDA-MB-231, 48 h
MCF7 = test: Antiproliferative activity against human MCF7 cells incubated for 2 days by MTT assay; details: MCF7, 48 h

Chain of Carbonic anhydrase 1 (P00915 whole entry): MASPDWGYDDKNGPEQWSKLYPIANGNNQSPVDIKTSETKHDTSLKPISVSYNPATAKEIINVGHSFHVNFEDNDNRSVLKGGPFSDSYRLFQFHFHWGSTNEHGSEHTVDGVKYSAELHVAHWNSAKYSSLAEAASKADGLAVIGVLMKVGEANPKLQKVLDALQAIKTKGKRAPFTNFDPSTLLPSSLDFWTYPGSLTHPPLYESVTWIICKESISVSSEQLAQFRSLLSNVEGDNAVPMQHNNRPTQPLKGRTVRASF

SMILES | Ki (Carbonic anhydrase 9 [1]) [nM] | also measured
Cc1c(NC(=O)Nc2ccccc2S(N)(=O)=O)oc2ccccc12 | 68.2 | 
Cc1ccc(S(=O)(=O)C/C(=N\Nc2ccc(S(N)(=O)=O)cc2)c2cc3cc(Br)ccc3o2)cc1 |  | Ki (Carbonic anhydrase 9 [2]): 10 nM
Cc1c(NC(=O)Oc2ccc(S(N)(=O)=O)cc2)oc2ccccc12 | 34.5 | 
Cc1noc(NS(=O)(=O)c2ccc(NC(=O)Nc3oc4ccccc4c3C)cc2)c1C | 560 | Ki (Carbonic anhydrase 1): > 100000 nM
Cc1ccc(NC(=O)Nc2oc3ccccc3c2C)cc1S(N)(=O)=O | 8.4 | IC50 (MDA-MB-231): 6270 nM; IC50 (MCF7): 6450 nM
NS(=O)(=O)c1cc(S(N)(=O)=O)c(NC(=O)Nc2cc3cc(Br)ccc3o2)cc1Cl | 22.8 | 
C/C(=N\Nc1ccc(S(N)(=O)=O)cc1)c1cc2cc(Br)ccc2o1 |  | Ki (Carbonic anhydrase 9 [2]): 27.7 nM
NS(=O)(=O)c1ccccc1NC(=O)Nc1cc2cc(Br)ccc2o1 | 35.8 | 
NS(=O)(=O)c1cccc(NC(=O)Nc2cc3cc(Br)ccc3o2)c1 | 20.2 | 
Cc1c(NC(=O)Nc2ccc(S(N)(=O)=O)cc2)oc2ccccc12 | 10.4 | 
NS(=O)(=O)c1ccc(NC(=O)Nc2cc3cc(Br)ccc3o2)cc1 | 7.1 | 
Cc1c(NC(=O)NCCc2ccc(S(N)(=O)=O)cc2)oc2ccccc12 | 7.6 | 
Cc1c(NC(=O)Nc2cc(Cl)c(S(N)(=O)=O)cc2S(N)(=O)=O)oc2ccccc12 | 53.9 | 
Cc1noc(NS(=O)(=O)c2ccc(NC(=O)Nc3cc4cc(Br)ccc4o3)cc2)c1C | 2300 | Ki (Carbonic anhydrase 1): > 100000 nM
Cc1c(NC(=O)Nc2ccc(S(=O)(=O)Nc3nccs3)cc2)oc2ccccc12 | 650 | 
Cc1c(NC(=O)NNC(=O)c2ccc(S(N)(=O)=O)cc2)oc2ccccc12 | 12.6 | 
NS(=O)(=O)c1ccc(C(=O)NNC(=O)Nc2cc3cc(Br)ccc3o2)cc1 | 1.8 | 
Cc1ccc(NC(=O)Nc2cc3cc(Br)ccc3o2)cc1S(N)(=O)=O | 5.5 | IC50 (MDA-MB-231): 14200 nM; IC50 (MCF7): 13800 nM
Cc1c(NC(=O)Nc2cccc(S(N)(=O)=O)c2)oc2ccccc12 | 25.3 | 
O=C(Nc1ccc(S(=O)(=O)Nc2nccs2)cc1)Nc1cc2cc(Br)ccc2o1 | 930 | Ki (Carbonic anhydrase 1): > 100000 nM
